**Q.** With CCCCC(CC)COCCCN1C(C)=CC(=C(C#N)C(=O)OCC(CC)CCCC)C=C1C (stereo not given) as the compound, how does the melting point read?
**A.** 69 to 70 °C

**Q.** Which melting point does the source give for COC(=O)C1=CCCn2c(=O)c3ccccc3c(=O)n21 here?
**A.** 156 to 157 °C

**Q.** For COc1ccc2[nH]c(S(=O)Cc3cc(N4CCCCC4)c(Br)cn3)nc2c1 (stereo not given), which melting point is on record?
**A.** 114 to 118 °C

**Q.** Which melting point does the source give for COc1ccc(S(=O)(=O)Nc2cc(Cl)cc(Cl)c2OC)cc1N1CCNCC1 here?
**A.** 189 to 190 °C

**Q.** For CCOC(=O)c1csc(C#Cc2ccc(OC)c(C34CC5CC(CC(C5)C3)C4)c2)c1, which melting point is on record?
**A.** 88 to 90 °C

**Q.** With CC12CCC(C(=O)O)=CC1=CCC1C2CCC2(C)C(C(=O)NC3C4CC5CC(C4)CC3C5)CCC12 (stereo not given) as the compound, how does the melting point read?
**A.** 214 to 216 °C

**Q.** For CCCOc1ccc(CSc2nc(SC)n(CC)c(=O)c2C)cc1, which melting point is on record?
**A.** 91 to 93 °C

**Q.** For COc1cc(COC(C)=O)c(COC(C)=O)cc1OCCCl, which melting point is on record?
**A.** 79 to 80 °C

**Q.** Which melting point does the source give for NC(=O)c1cccc(-c2cccc(O)c2)c1 here?
**A.** 148 to 151 °C

**Q.** Which melting point does the source give for OC1CCCC1Oc1ccc(Oc2ccccc2)cc1 (stereo not given) here?
**A.** 62 to 65 °C

**Q.** For CNC(=O)OCc1nc(C(C)C)c(Sc2cc(Cl)cc(Cl)c2)n1C, which melting point is on record?
**A.** 112 to 113 °C

**Q.** Which melting point does the source give for O=C(Nc1ccc(C2CN(C(=O)OCc3ccccc3)C2)c(F)c1)OCc1ccccc1 here?
**A.** 95 °C

**Q.** With O=C(O)Cc1ccc(OCCNC(=O)[C@@H]2Cc3ccccc3N2S(=O)(=O)c2ccc(Oc3ccc(F)cc3)cc2)cc1 as the compound, how does the melting point read?
**A.** 65 °C

**Q.** With Cc1cc2cc(CN3CCCC3)cnc2cc1NC(=O)c1ccc(-c2ccccc2F)cc1 as the compound, how does the melting point read?
**A.** 148 to 149 °C

**Q.** With CS(=O)(=O)c1ccc(C(Cc2ccc(F)cc2)C(=O)Nc2nc3ncccc3o2)cc1 (stereo not given) as the compound, how does the melting point read?
**A.** 261 to 264 °C

**Q.** Which melting point does the source give for Cc1ccc(C(=O)Nc2cc(C(F)(F)F)ccn2)cc1/C=C/n1cnc2c(NC3CC3)ncnc21 here?
**A.** 232 °C

**Q.** For CCCC(=O)Nc1ccc(O)c(C(=O)C=CN(C)C)c1, which melting point is on record?
**A.** 174 °C

**Q.** With COc1ccc(C(=O)c2ccccc2C)cc1C as the compound, how does the melting point read?
**A.** 72 to 73 °C

**Q.** Which melting point does the source give for FC(F)Oc1cnnc(-c2cccc(C(F)(F)F)c2)c1 here?
**A.** 70 to 72 °C

**Q.** Which melting point does the source give for CCN(CC)c1ccc2cc([N+](=O)[O-])c(=O)oc2c1 here?
**A.** 193 to 195 °C

**Q.** With Cc1nc2cnccc2n1-c1ccc(C2=Nc3cc(Cl)c(Cl)cc3N3CCN=C3C2)cc1 as the compound, how does the melting point read?
**A.** 159 to 162 °C

**Q.** With Cc1c(C2=NCCS2)[nH]c2c(NS(=O)(=O)c3cccs3)cccc12 as the compound, how does the melting point read?
**A.** 163 to 164 °C

**Q.** For C=CCc1c(O)c2cccnc2n(-c2ccccc2)c1=O, which melting point is on record?
**A.** 248 to 250 °C

**Q.** For CC[Si](CC)(CC)OC1CCCc2cnc3ccc(OCc4ccccc4[N+](=O)[O-])cc3c21 (stereo not given), which melting point is on record?
**A.** 110 to 111 °C

**Q.** With CC1(C)CNC(=O)N1CC#CCN1CCCC1 as the compound, how does the melting point read?
**A.** 50 °C

**Q.** With CCC(C)(C)Nc1c(NCc2cc(C)ccc2C)c(=O)c1=O as the compound, how does the melting point read?
**A.** 199 to 200 °C

**Q.** With COc1cc(OC)c([C@@H]2CCCC[C@H]2O)c(OC)c1 (racemic) as the compound, how does the melting point read?
**A.** 125 to 127 °C

**Q.** With N#Cc1cnn(-c2ncc(C(F)(F)F)cc2Cl)c1C=CC(=O)O as the compound, how does the melting point read?
**A.** 225 to 228 °C

**Q.** For CC(C(=O)O)c1cccc(NC(=O)NCC(=O)N2[C@@H](c3ccccc3)CC[C@H]2C(=O)OC(C)(C)C)c1 (stereo not given in full), which melting point is on record?
**A.** 120 °C

**Q.** For N#Cc1c(N2CCN(C(=O)c3cccs3)CC2)c2cccnc2n(Cc2ccccc2)c1=O, which melting point is on record?
**A.** 263 °C

**Q.** With Cc1ccc(C)c2c1C(=O)N(c1ccc(F)cc1F)C2=O as the compound, how does the melting point read?
**A.** 212 °C

**Q.** With COC(=O)C(Oc1ccc(Cl)c2c1CCC2)c1ccc(Oc2ccc(Cl)cc2)cc1 (stereo not given) as the compound, how does the melting point read?
**A.** 94 to 96 °C

**Q.** Which melting point does the source give for COC(=O)c1cc(I)ccc1Nc1ccccc1C(=O)O here?
**A.** 230 to 232 °C

**Q.** With Cc1cccc(S(=O)(=O)OS(=O)(=O)c2cccc(C)c2C)c1C as the compound, how does the melting point read?
**A.** 115 to 130 °C

**Q.** For CCCCCCCc1nc(-c2ccccc2)c(-c2ccccc2)n1CCCCCCCC(=O)O, which melting point is on record?
**A.** 75 to 76 °C

**Q.** For CN1C(=O)C(=CNc2ccncc2)C(=O)N(C)C1=O, which melting point is on record?
**A.** 233 to 235 °C

**Q.** With O=C1NC(=O)c2c1c1c3ccc(F)cc3[nH]c1c1c2c2ccc(F)cc2n1C1OC2COC(C2O)C1O (stereo not given) as the compound, how does the melting point read?
**A.** > 300 °C

**Q.** For Cc1cc(-c2nc3ccc(F)cc3s2)ccc1N, which melting point is on record?
**A.** 203 to 205 °C

**Q.** With O=[N+]([O-])c1ccc(Oc2ccc(Cl)c(Cl)c2)nc1 as the compound, how does the melting point read?
**A.** 101 to 102 °C

**Q.** For Fc1cccc(-c2sc(-c3ccccc3)cc2-c2ccccc2)c1, which melting point is on record?
**A.** 118 to 119 °C

**Q.** For NCC1Cc2cc(C(F)(F)F)cc(-c3ccc(F)cc3)c2O1 (stereo not given), which melting point is on record?
**A.** > 250 °C

**Q.** Which melting point does the source give for CN(C)CCNc1cc(Cl)nc(-c2ccc(Cl)c(Cl)c2)n1 here?
**A.** 99.5 to 102 °C

**Q.** Which melting point does the source give for COc1cc(OC)cc(-c2cc(=O)c3ccc(OCC(O)CNC(C)C)cc3o2)c1 (stereo not given) here?
**A.** 155 to 156 °C

**Q.** Which melting point does the source give for Cc1ccc(-c2nc(CI)c(C)o2)cc1 here?
**A.** 104 to 105 °C

**Q.** Which melting point does the source give for O=C1OC(CCCO)C(c2ccccc2)=C1O (stereo not given) here?
**A.** 148 to 150 °C

**Q.** With CCCOC1=Nc2ccc(Cl)cc2C(=CCCN)N1CCC as the compound, how does the melting point read?
**A.** 50 to 51 °C

**Q.** Which melting point does the source give for Cc1cnc(N2N=C(c3ccc([N+](=O)[O-])cc3)c3cc4c(cc3CC2C)OCO4)s1 (stereo not given) here?
**A.** 193 to 195 °C

**Q.** With CC1(C)CCC(C)(C)c2cc(S(=O)(=O)n3c(CCCC(=O)O)cc4cc(Cl)ccc43)ccc21 as the compound, how does the melting point read?
**A.** 64 to 66 °C

**Q.** For OC[C@@](O)(Cc1ccccc1)c1ccccc1, which melting point is on record?
**A.** 62 °C

**Q.** Which melting point does the source give for CCCC12CCC(=O)C=C1c1c(cc(OC)c(Cl)c1Cl)O2 (stereo not given) here?
**A.** 172 to 173 °C

Reference: a melting point compilation (Tetko et al.; mined from patent text by program, amines drawn as free bases though some values may be those of a salt)
